We go through 26 compounds from patent publication US8541588B2, “Sulfonamide derivatives” (Pfizer Limited, priority 2009, dated 2013).

Where only a bound is given, the exact number is not on record here.

The target in the first test is T1, Nav1.7 (or SCN9A) channel; HEK cells stably transfected with hSCN9A (Homo sapiens, UniProt Q15858).
T1 construct: expressed in transfected cells
T1 sequence (Q15858 whole entry): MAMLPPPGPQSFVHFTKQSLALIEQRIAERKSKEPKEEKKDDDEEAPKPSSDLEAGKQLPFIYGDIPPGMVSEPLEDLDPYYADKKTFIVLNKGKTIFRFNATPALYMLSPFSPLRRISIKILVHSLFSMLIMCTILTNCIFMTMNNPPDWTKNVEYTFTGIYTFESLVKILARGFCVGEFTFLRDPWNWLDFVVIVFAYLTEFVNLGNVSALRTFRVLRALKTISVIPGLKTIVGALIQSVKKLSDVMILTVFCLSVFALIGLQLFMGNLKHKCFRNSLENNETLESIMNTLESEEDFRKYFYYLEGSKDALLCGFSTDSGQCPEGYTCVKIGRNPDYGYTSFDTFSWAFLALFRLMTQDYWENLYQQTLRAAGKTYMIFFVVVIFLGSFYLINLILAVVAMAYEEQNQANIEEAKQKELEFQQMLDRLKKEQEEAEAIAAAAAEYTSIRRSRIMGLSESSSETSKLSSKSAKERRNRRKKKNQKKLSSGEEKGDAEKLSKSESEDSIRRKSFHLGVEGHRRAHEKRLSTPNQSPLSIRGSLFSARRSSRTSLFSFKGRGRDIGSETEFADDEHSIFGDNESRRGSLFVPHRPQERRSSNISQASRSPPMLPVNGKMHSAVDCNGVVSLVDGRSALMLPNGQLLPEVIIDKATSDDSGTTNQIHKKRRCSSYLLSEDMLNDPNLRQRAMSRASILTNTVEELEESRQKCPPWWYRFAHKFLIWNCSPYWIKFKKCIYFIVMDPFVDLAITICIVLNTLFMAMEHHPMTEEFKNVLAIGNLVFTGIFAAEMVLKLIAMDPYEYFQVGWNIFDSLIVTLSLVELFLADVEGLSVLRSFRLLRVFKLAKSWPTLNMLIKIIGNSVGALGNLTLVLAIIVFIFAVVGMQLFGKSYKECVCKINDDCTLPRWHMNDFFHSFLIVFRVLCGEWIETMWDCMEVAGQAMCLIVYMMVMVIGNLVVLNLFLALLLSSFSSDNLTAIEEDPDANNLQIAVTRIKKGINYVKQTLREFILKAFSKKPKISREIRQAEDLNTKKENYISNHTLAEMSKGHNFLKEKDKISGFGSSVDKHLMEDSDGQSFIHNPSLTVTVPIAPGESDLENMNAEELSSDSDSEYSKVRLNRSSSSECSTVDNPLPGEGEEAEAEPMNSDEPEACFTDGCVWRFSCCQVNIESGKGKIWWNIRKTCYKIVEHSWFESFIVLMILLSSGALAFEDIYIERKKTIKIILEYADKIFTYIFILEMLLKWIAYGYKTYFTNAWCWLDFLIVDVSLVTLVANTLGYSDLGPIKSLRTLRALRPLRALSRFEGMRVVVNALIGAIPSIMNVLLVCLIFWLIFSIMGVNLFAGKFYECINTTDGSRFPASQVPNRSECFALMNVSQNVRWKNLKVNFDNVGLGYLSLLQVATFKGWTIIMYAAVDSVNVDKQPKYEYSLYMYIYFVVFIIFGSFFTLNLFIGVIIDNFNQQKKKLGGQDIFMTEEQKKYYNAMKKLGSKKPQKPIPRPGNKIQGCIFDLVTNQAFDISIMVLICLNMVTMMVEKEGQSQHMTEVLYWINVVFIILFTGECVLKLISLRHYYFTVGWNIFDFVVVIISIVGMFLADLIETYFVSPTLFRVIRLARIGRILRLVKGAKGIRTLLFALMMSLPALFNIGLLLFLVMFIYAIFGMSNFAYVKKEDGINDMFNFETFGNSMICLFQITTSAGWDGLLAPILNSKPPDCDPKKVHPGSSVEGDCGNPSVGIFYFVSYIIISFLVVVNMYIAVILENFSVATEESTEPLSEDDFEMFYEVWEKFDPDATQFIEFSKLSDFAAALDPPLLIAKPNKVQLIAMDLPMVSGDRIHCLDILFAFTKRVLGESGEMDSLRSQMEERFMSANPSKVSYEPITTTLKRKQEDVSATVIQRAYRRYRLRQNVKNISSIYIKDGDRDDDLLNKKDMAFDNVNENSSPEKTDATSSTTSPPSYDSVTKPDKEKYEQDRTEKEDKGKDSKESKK
Briefly: Nav1.7 block, PatchXpress 7000 automated whole-cell voltage clamp, estimated IC50 (EIC50). The class given is cell-based. The settings on record: PatchXpress platform; hSCN9A HEK cells held at V1/2 of inactivation; estimated IC50.
As to `O=S(=O)(Nc1nccs1)c1ccc(Oc2ccc(CN3CCC3)c(F)c2)c(F)c1` [Example 125, 4-[4-(azetidin-1-ylmethyl)-3-fluorophenoxy]-3-fluoro-N-1,3-thiazol-2-ylbenzenesulfonamide], the concentration for half-maximal inhibition (IC50) was 23 µM.

With `CC(C)Oc1ccc(-c2cc(Cl)ccc2Oc2ccc(S(=O)(=O)Nc3nccs3)cc2C#N)cc1` [Example 155, 4-[(5-chloro-4′-isopropoxybiphenyl-2-yl)oxy]-3-cyano-N-1,3-thiazol-2-ylbenzenesulfonamide], the IC50 is 0.85 µM.

With `N#Cc1cc(S(=O)(=O)Nc2nccs2)ccc1Oc1ccc(F)cc1-c1ccnn1CC(F)(F)F` [Example 175, 3-cyano-4-(4-fluoro-2-(1-(2,2,2-trifluoroethyl)-1H-pyrazol-5-yl)phenoxy)-N-(thiazol-2-yl)benzenesulfonamide], the half-maximal inhibitory concentration (IC50) was 0.54 µM.

As for `O=S(=O)(Nc1nccs1)c1ccc(Oc2ccc(Cl)cc2-c2ccnn2-c2ccccc2)cc1F` [Example 211, 4-(4-chloro-2-(1-phenyl-1H-pyrazol-5-yl)phenoxy)-2-fluoro-N-(thiazol-2-yl)benzenesulfonamide], the half-inhibitory concentration (IC50) was 0.11 µM.

On to `CC(C)Oc1cccc(-c2cc(F)ccc2Oc2ccc(S(=O)(=O)Nc3ncns3)cc2C#N)c1` [Example 5, 3-cyano-4-[(5-fluoro-3′-isopropoxybiphenyl-2-yl)oxy]-N-1,2,4-thiadiazol-5-ylbenzenesulfonamide], for which the IC50 is 0.07 µM.

Turning to `O=S(=O)(Nc1cscn1)c1ccc(Oc2ccc(-c3ccccc3)cc2)c(F)c1` [Example 273, 4-(biphenyl-4-yloxy)-3-fluoro-N-thiazol-4-yl-benzenesulfonamide], the IC50 was 2.17 µM.

`O=S(=O)(Nc1nccs1)c1ccc(Oc2ccc(OCc3ccccc3)c(F)c2)c(F)c1` [Example 120, 4-[4-(benzyloxy)-3-fluorophenoxy]-3-fluoro-N-1,3-thiazol-2-ylbenzenesulfonamide]: the IC50 is 37.4 µM.

Turning to `N#Cc1cc(S(=O)(=O)Nc2ccccc2C(F)(F)F)ccc1Oc1ccccc1-c1ccccc1` [Example 111, 4-(biphenyl-2-yloxy)-3-cyano-N-[2-(trifluoromethyl)phenyl]benzenesulfonamide], the concentration for half-maximal inhibition (IC50) was over 3 µM.

Consider `O=S(=O)(Nc1nccs1)c1ccc(Oc2ccc(Oc3ccccc3)cc2)c(F)c1` [Example 127, 3-fluoro-4-(4-phenoxyphenoxy)-N-1,3-thiazol-2-ylbenzenesulfonamide], for which the 50% inhibitory concentration (IC50) is given as over 10 µM.

Take `O=S(=O)(Nc1nccs1)c1ccc(Oc2ccccc2-c2ccccn2)c(F)c1` [Example 131, 3-fluoro-4-(2-pyridin-2-ylphenoxy)-N-1,3-thiazol-2-ylbenzenesulfonamide]: the concentration for half-maximal inhibition (IC50) is 12.1 µM.

Turning to `N#Cc1cc(S(=O)(=O)Nc2nccs2)ccc1Oc1ccc(F)cc1-c1cccc(CO)c1` [Example 161, 3-cyano-4-{[5-fluoro-3′-(hydroxymethyl)biphenyl-2-yl]oxy}-N-1,3-thiazol-2-ylbenzenesulfonamide], the concentration for half-maximal inhibition (IC50) was 0.07 µM.

On to `CC(C)Oc1cccc(-c2ccccc2Oc2ccc(S(=O)(=O)Nc3ncns3)cc2C#N)c1` [Example 34, 3-cyano-4-[(3′-isopropoxybiphenyl-2-yl)oxy]-N-1,2,4-thiadiazol-5-ylbenzenesulfonamide], for which the IC50 was 0.09 µM.

Consider `O=S(=O)(Nc1ncns1)c1cc(F)c(Oc2ccccc2-c2ccccc2)c(F)c1` [Example 264, 4-(biphenyl-2-yloxy)-3,5-difluoro-N-1,2,4-thiadiazol-5-ylbenzenesulfonamide], for which the half-inhibitory concentration (IC50) is 2.38 µM.

Still in this test, the particulars now being: estimated IC50; hSCN9A HEK cells, PatchXpress platform; Examples 283-814.
Take `N#Cc1cc(S(=O)(=O)Nc2nccs2)ccc1Oc1cccc(-c2ccccn2)c1` [Example 449, 3-cyano-4-(3-pyridin-2-ylphenoxy)-N-1,3-thiazol-2-ylbenzenesulfonamide]: the 50% inhibitory concentration (IC50) was 3.1 µM.

On to `N#Cc1ccc(Oc2cc(F)c(S(=O)(=O)Nc3ncc(Cl)s3)cc2F)c(-c2cn[nH]c2)c1` [Example 771, N-(5-chloro-1,3-thiazol-2-yl)-4-[4-cyano-2-(1H-pyrazol-4-yl)phenoxy]-2,5-difluorobenzenesulfonamide], for which the IC50 was 0.24 µM.

In the case of `N#Cc1cc(S(=O)(=O)Nc2nccs2)ccc1Oc1ccc(Br)cc1-c1ccn[nH]1` [Example 461, 4-[4-bromo-2-(1H-pyrazol-5-yl)phenoxy]-3-cyano-N-1,3-thiazol-2-ylbenzenesulfonamide], the half-maximal inhibitory concentration (IC50) was 0.02 µM.

`O=S(=O)(Nc1cscn1)c1cc(Cl)c(Oc2ccc(F)cc2-c2ccn[nH]2)cc1F` [Example 658, 5-chloro-2-fluoro-4-[4-fluoro-2-(1H-pyrazol-5-yl)phenoxy]-N-1,3-thiazol-4-ylbenzenesulfonamide]: the half-maximal inhibitory concentration (IC50) is 0.25 µM.

As to `Cn1ccc(-c2cc(F)ccc2Oc2cc(F)c(S(=O)(=O)Nc3cscn3)cc2Cl)n1` [Example 522, 5-chloro-2-fluoro-4-[4-fluoro-2-(1-methyl-1H-pyrazol-3-yl)phenoxy]-N-1,3-thiazol-4-ylbenzenesulfonamide], the IC50 is 7.3 µM.

`CC(C)Cc1ccc(Oc2ccc(S(=O)(=O)Nc3nccs3)cc2F)c(-c2ccnn2C)c1` [Example 723, 3-Fluoro-4-[4-isobutyl-2-(1-methyl-1H-pyrazol-5-yl)phenoxy]-N-1,3-thiazol-2-ylbenzenesulfonamide]: the IC50 was 0.064 µM.

Still in this test, the particulars now being: estimated IC50; hSCN9A HEK cells, PatchXpress platform; Examples 815-1040.
In the case of `Nc1[nH]ncc1-c1cc(Cl)ccc1Oc1ccc(S(=O)(=O)Nc2ncns2)cc1Cl` [Example 913, 4-[2-(5-amino-1H-pyrazol-4-yl)-4-chlorophenoxy]-3-chloro-N-1,2,4-thiadiazol-5-ylbenzenesulfonamide], the IC50 is 0.0009 µM.

Take `N#Cc1cc(S(=O)(=O)Nc2ncc(Cl)s2)ccc1Oc1cc(F)ccc1-c1ccn[nH]1` [Example 992, N-(5-chloro-1,3-thiazol-2-yl)-3-cyano-4-[5-fluoro-2-(1H-pyrazol-5-yl)phenoxy]benzenesulfonamide]: the 50% inhibitory concentration (IC50) was 0.54 µM.

As to `O=S(=O)(Nc1ncns1)c1ccc(Oc2ccc(OC(F)(F)F)cc2-c2ccn[nH]2)c(F)c1` [Example 829, 3-fluoro-4-[2-(1H-pyrazol-5-yl)-4-(trifluoromethoxy)phenoxy]-N-1,2,4-thiadiazol-5-ylbenzenesulfonamide], the IC50 is 0.034 µM.

Take `O=S(=O)(Nc1nncs1)c1cc(Cl)c(Oc2cc(F)c(OC(F)(F)F)cc2-c2ccnnc2)cc1F` [Example 963, 5-chloro-2-fluoro-4-[5-fluoro-2-pyridazin-4-yl-4-(trifluoromethoxy)phenoxy]-N-1,3,4-thiadiazol-2-ylbenzenesulfonamide]: the half-maximal inhibitory concentration (IC50) was 0.015 µM.

Consider `N#Cc1cc(S(=O)(=O)Nc2ncns2)ccc1Oc1cc(Cl)c(F)cc1-c1ccnnc1` [Example 938, 4-(5-chloro-4-fluoro-2-pyridazin-4-ylphenoxy)-3-cyano-N-1,2,4-thiadiazol-5-ylbenzenesulfonamide], for which the concentration for half-maximal inhibition (IC50) was 0.025 µM.

In the case of `N#Cc1cc(S(=O)(=O)Nc2ncns2)ccc1Oc1cc(C(F)(F)F)c(F)cc1-c1ccnnc1` [Example 948, 3-cyano-4-[4-fluoro-2-pyridazin-4-yl-5-(trifluoromethyl)phenoxy]-N-1,2,4-thiadiazol-5-ylbenzenesulfonamide], the concentration for half-maximal inhibition (IC50) was 0.011 µM.

With `N#Cc1cc(S(=O)(=O)Nc2nncs2)ccc1Oc1ccc(Cl)cc1-c1ccnc(N2CCOCC2)c1` [Example 899, 4-[4-chloro-2-(2-morpholin-4-ylpyridin-4-yl)phenoxy]-3-cyano-N-1,3,4-thiadiazol-2-ylbenzenesulfonamide], the IC50 was 0.018 µM.
